In the data set the test system is rodent carcinogenicity bioassays, tumor incidence. In words: CCRIS carcinogenicity studies. In short, it runs like this:
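NCI-built, expert-reviewed records of carcinogenicity and related test outcomes (mutagenicity, tumor promotion/inhibition) compiled from published and report sources, historical span 1985-2011, not updated.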

Structures are written as SMILES. The source made the active and inactive calls. No rule for the calls is given here.

Turning to `ClCCOCCCl`, the carcinogen call is, setting by setting: (Species: MOUSE, Strain/Sex: B6AKF1/MALE, Route: GAVAGE/ORAL, Dose: 100 MG/KG FROM DAY 7-28 OF LIFE THEN 300 MG/KG IN DIET, Tumor Site: Type of Lesion: LIVER: HEPATOMA) “active; positive”; (Species: MOUSE, Strain/Sex: B6C3F1/MALE,FEMALE, Route: GAVAGE/ORAL, Dose: 100 MG/KG FROM DAY 7-28 OF LIFE THEN 300 MG/KG IN DIET, Tumor Site: Type of Lesion: LIVER: HEPATOMA) “active; positive”; (Species: RAT, Strain/Sex: SPRAGUE-DAWLEY/MALE, Route: SUBCUTANEOUS, Dose: 0, 13.1, 4.36 UMOL IN DMSO 1/WK FOR 2 YR (STUDY DURATION: 2 YR), Dose: 0, 13.1, 4.36 UMOL IN DMSO 1/WK FOR 2 YR (STUDY DURATION: 2 YR)) “inactive; negative”; (Species: RAT, Strain/Sex: STRAIN-CD/MALE,FEMALE, Route: GAVAGE, Dose: 25, 50 MG/KG IN STEROID SUSPENDING VEHICLE 2/WK FOR 78 WK) “inactive; negative”.

On to `Nc1c(Cl)c(F)nc(OCC(=O)O)c1Cl`, for which the carcinogen call runs as follows: (Species: Mouse, Strain/Sex: CD-1/Female (60/Group), Route: Oral, Dose: 0, 100, 500, 1000 mg/kg/day of 98.9% fluroxypyr in diet for 18 mo, study duration 18 mo, Dose: 0, 100, 500, 1000 mg/kg/day of 98.9% fluroxypyr in diet for 18 mo, study duration 18 mo) “inactive; negative”; (Species: Mouse, Strain/Sex: CD-1/Male (60/Group), Route: Oral, Dose: 0, 100, 500, 1000 mg/kg/day of 98.9% fluroxypyr in diet for 18 mo, study duration 18 mo, Dose: 0, 100, 500, 1000 mg/kg/day of 98.9% fluroxypyr in diet for 18 mo, study duration 18 mo) “inactive; negative”; (Species: Rat, Strain/Sex: Fischer 344/Female (50/Group), Route: Oral, Dose: 0, 100, 500, 1000 mg/kg/day of 99.0% fluroxypyr in diet for 2 yr, study duration 2 yr, Dose: 0, 100, 500, 1000 mg/kg/day of 99.0% fluroxypyr in diet for 2 yr, study duration 2 yr) “inactive; negative”; (Species: Rat, Strain/Sex: Fischer 344/Male (50/Group), Route: Oral, Dose: 0, 100, 500, 1000 mg/kg/day of 99.0% fluroxypyr in diet for 2 yr, study duration 2 yr, Dose: 0, 100, 500, 1000 mg/kg/day of 99.0% fluroxypyr in diet for 2 yr, study duration 2 yr) “inactive; negative”.

Consider `O=C(Nc1ccccc1)Nc1ccnc(Cl)c1`, for which the carcinogen call (Species: Mouse, Strain/Sex: CD-1/Female (60/Group), Route: Oral, Dose: 0, 10, 1000 mg/kg/day of 96.9% forchlorfenuron in diet for 18 mo, study duration 18 mo, Dose: 0, 10, 1000 mg/kg/day of 96.9% forchlorfenuron in diet for 18 mo, study duration 18 mo) is “inactive; negative”; the carcinogen call (Species: Mouse, Strain/Sex: CD-1/Male (60/Group), Route: Oral, Dose: 0, 10, 1000 mg/kg/day of 96.9% forchlorfenuron in diet for 18 mo, study duration 18 mo, Dose: 0, 10, 1000 mg/kg/day of 96.9% forchlorfenuron in diet for 18 mo, study duration 18 mo) was “inactive; negative”; the carcinogen call (Species: Rat, Strain/Sex: Strain not specified by Department of Pesticides Regulation/Female (70/Group), Route: Oral, Dose: 0, 9, 122, 518 mg/kg/day of 98.5% forchlorfenuron in diet for up to 2 yr, study duration 2 yr, Dose: 0, 9, 122, 518 mg/kg/day of 98.5% forchlorfenuron in diet for up to 2 yr, study duration 2 yr) is “inactive; negative”; the carcinogen call (Species: Rat, Strain/Sex: Strain not specified by Department of Pesticides Regulation/Male (70/Group), Route: Oral, Dose: 0, 7, 93, 352 mg/kg/day of 98.5% forchlorfenuron in diet for up to 2 yr, study duration 2 yr, Dose: 0, 7, 93, 352 mg/kg/day of 98.5% forchlorfenuron in diet for up to 2 yr, study duration 2 yr) was “inactive; negative”.

With `O=S(=O)(O)OCc1c2ccccc2cc2c1ccc1ccccc12`, the carcinogen call (Species: RAT, Strain/Sex: SPRAGUE-DAWLEY/FEMALE, Route: SUBCUTANEOUS, Dose: 0, 0.2 UMOL IN SESAME OIL:DMSO (9:1) 3/WK FOR 20 DOSES (STUDY DURATION: 52 WK), Tumor Site: Type of Lesion: INJECTION SITE: SARCOMA) is “active; positive”.

In the case of `O=NN(CCO)CCO`, the carcinogen call is “active; positive” (Species: HAMSTER, Route: SUBCUTANEOUS, Tumor Site: Type of Lesion: LIVER, INJECTION SITE, NASAL CAVITY, TRACHEA, Tumor Site: Type of Lesion: LIVER, INJECTION SITE, NASAL CAVITY, TRACHEA); “active; positive” (Species: HAMSTER, Strain/Sex: SYRIAN/FEMALE, Route: SUBCUTANEOUS, Dose: 0, 250, 500, 1000 MG/KG IN SALINE 1/WK FOR DURATION OF STUDY (STUDY DURATION: 41-59 WK), Dose: 0, 250, 500, 1000 MG/KG IN SALINE 1/WK FOR DURATION OF STUDY (STUDY DURATION: 41-59 WK), Tumor Site: Type of Lesion: NASAL CAVITY: ADENOCARCINOMA, TRACHEA: PAPILLARY POLYP, LARYNX: PAPILLARY POLYP, Tumor Site: Type of Lesion: NASAL CAVITY: ADENOCARCINOMA, TRACHEA: PAPILLARY POLYP, LARYNX: PAPILLARY POLYP); “active; positive” (Species: HAMSTER, Strain/Sex: SYRIAN/MALE, Route: SUBCUTANEOUS, Dose: 0, 250, 500, 1000 MG/KG IN SALINE 1/WK FOR DURATION OF STUDY (STUDY DURATION: 45-54 WK), Dose: 0, 250, 500, 1000 MG/KG IN SALINE 1/WK FOR DURATION OF STUDY (STUDY DURATION: 45-54 WK), Tumor Site: Type of Lesion: NASAL CAVITY: ADENOCARCINOMA, TRACHEA: PAPILLARY POLYP, LARYNX: PAPILLARY POLYP, Tumor Site: Type of Lesion: NASAL CAVITY: ADENOCARCINOMA, TRACHEA: PAPILLARY POLYP, LARYNX: PAPILLARY POLYP); “active; positive” (Species: MOUSE, Strain/Sex: STRAIN-A/FEMALE, Route: ORAL, Dose: 0, 0.2 UMOL/ML IN DRINKING WATER FOR 10 WK (TOTAL DOSE: 0, 55 UMOL) FOLLOWED BY TAP WATER FOR 20 WK (STUDY DURATION: 30, Tumor Site: Type of Lesion: LUNG: TUMORS); “active; positive” (Species: RAT, Route: ORAL, Tumor Site: Type of Lesion: KIDNEY, LIVER); “active; positive” (Species: RAT, Strain/Sex: F344/FEMALE, Route: ORAL, Dose: 0, 150 MG/L IN DRINKING WATER 5 D/WK FOR 50 WK (TOTAL DOSE: 0; 5.6 MMOL) (STUDY DURATION: 124 WK), Dose: 0, 150 MG/L IN DRINKING WATER 5 D/WK FOR 50 WK (TOTAL DOSE: 0; 5.6 MMOL) (STUDY DURATION: 124 WK), Tumor Site: Type of Lesion: LIVER: HEPATOCELLULAR TUMOR).

As for `c1ccc2ccccc2c1`, the carcinogen call (Species: MOUSE, Strain/Sex: B6C3F1/FEMALE, Route: INHALATION, Dose: 0, 10, 30 PPM 6 HR/D 5 D/WK FOR 104 WK (STUDY DURATION: 104 WK), Dose: 0, 10, 30 PPM 6 HR/D 5 D/WK FOR 104 WK (STUDY DURATION: 104 WK), Tumor Site: Type of Lesion: LUNG: ALVEOLAR/BRONCHIOLAR ADENOMA OR CARCINOMA) was “active; positive”; the carcinogen call (Species: MOUSE, Strain/Sex: B6C3F1/MALE, Route: INHALATION, Dose: 0, 10, 30 PPM 6 HR/D 5 D/WK FOR 104 WK (STUDY DURATION: 104 WK), Dose: 0, 10, 30 PPM 6 HR/D 5 D/WK FOR 104 WK (STUDY DURATION: 104 WK)) is “inactive; negative”; the carcinogen call (Species: MOUSE, Strain/Sex: CD-1/FEMALE, Route: INTRAPERITONEAL, Dose: 0, 0.25, 0.5, 1.0 UMOL IN DMSO TO NEWBORN MICE ON DAY 1, 8 AND 15 OF LIFE RESPECTIVELY (TOTAL DOSE: 1.75 UMOL) (STUDY DU, Dose: 0, 0.25, 0.5, 1.0 UMOL IN DMSO TO NEWBORN MICE ON DAY 1, 8 AND 15 OF LIFE RESPECTIVELY (TOTAL DOSE: 1.75 UMOL) (STUDY DU) is “inactive; negative”; the carcinogen call (Species: MOUSE, Strain/Sex: CD-1/MALE, Route: INTRAPERITONEAL, Dose: 0, 0.25, O.5, 1.0 UMOL IN DMSO TO NEWBORN MICE ON DAY 1,8 AND 15 OF LIFE RESPECTIVELY (TOTAL DOSE: 1.75 UMOL) (STUDY DUR, Dose: 0, 0.25, O.5, 1.0 UMOL IN DMSO TO NEWBORN MICE ON DAY 1,8 AND 15 OF LIFE RESPECTIVELY (TOTAL DOSE: 1.75 UMOL) (STUDY DUR) was “inactive; negative”; the carcinogen call (Species: RAT, Strain/Sex: F344/N/FEMALE, Route: INHALATION, Dose: 0, 10, 30, 60 PPM 6 HR/D 5 D/WK FOR 105 WK (STUDY DURATION: 105 WK), Dose: 0, 10, 30, 60 PPM 6 HR/D 5 D/WK FOR 105 WK (STUDY DURATION: 105 WK), Tumor Site: Type of Lesion: NOSE: NEUROBLASTOMA) was “active; positive”; the carcinogen call (Species: RAT, Strain/Sex: F344/N/MALE, Route: INHALATION, Dose: 0, 10, 30, 60 PPM 6 HR/D 5 D/WK FOR 105 WK (STUDY DURATION: 105 WK), Dose: 0, 10, 30, 60 PPM 6 HR/D 5 D/WK FOR 105 WK (STUDY DURATION: 105 WK), Tumor Site: Type of Lesion: NOSE: ADENOMA) was “active; positive”.

Values taken from PubChem BioAssay AID1259411 (Chemical Carcinogenesis Research Information System (CCRIS), 2018).
